Experimental data published in patent US12629401B2, “Method for preparing ginseng extract enriched with rare ginsenosides and applications thereof” (priority 2023, dated 2026).

System: SD1347 nematodes
Assay: Mitochondrial health test: muscle fragmentation score by confocal microscopy
Assay type: in vivo, C. hidradenitis elegans nematodes
Settings: 100 μg/mL JadeAging, 11.4 μg/mL urolithin A
From the text: Skeletal sarcopenia is an age-related loss of muscle and strength. Muscle mitochondrial dysfunction is observed at the onset of skeletal sarcopenia, followed by alterations in skeletal muscle segmental architecture, ultimately leading to decreased movement. In recent years, clinical studies have shown that urolithin A improves mitochondrial health and alleviates muscle decline due to aging. In the present study, the fluorescently labeled myocyte nuclei and mitochondria of […] were used to assess whether JadeAging could ameliorate age-related dysfunction.
METHODS: SD1347 C. hidradenitis elegans nematodes were treated with JadeAging and fluorescently labeled with muscle nuclei and mitochondria, and muscle and mitochondrial health were assessed using confocal microscopy on days 2, 9, and 12 of the adult stage of C. hidradenitis elegans. […]
Maximum intensity projected confocal images of adult […] animals on days 2, 9 and 12 are shown in FIG. 11, all images are from the “head” region. Healthy muscles, i.e., those of the blank group (VC group), are marked by arrows in the day 2 images and are uniformly streaked; those of the blank group (VC group) are marked by arrows in the day 12 images and show uneven fluorescence. […]

SMILES: O=c1oc2cc(O)ccc2c2ccc(O)cc12 [urolithin A]
- protective effect against age-related skeletal muscle reduction (mean fragmentation scores) (FIG. 13): significant protective effect
- mitochondrial health (change of fragmentation score distribution with age) (days 2, 9, 12, FIG. 12): superior to that of the blank group (VC group)
